Data as given in patent US9822099B2, “Triazole derivatives” (priority 2013, dated 2017).
Marks after values point to notes of the source that are not given here.

tested on: Sphaerotheca fuliginea; assay: Example E: in vivo preventive test on Sphaerotheca fuliginea (powdery mildew on cucurbits); settings: 500 ppm of active ingredient; gherkin plants, preventive spray; evaluated 15 days after inoculation
Procedure: (§1) The young plants of gherkin are treated by spraying the active ingredient prepared as described above. Control plants are treated only with an aqueous solution of acetone/Dimethyl sulfoxide/Tween®. After 24 hours, the plants are contaminated by spraying the leaves with an aqueous suspension of Sphaerotheca fuliginea spores.

Row | SMILES | Eff. % [%]
1 | OC(Cc1cccnc1F)(Cn1cncn1)C1(Cl)CC1 (centres unmarked) [Example I-51] | 100
2 | OC(Cc1ccc(Cl)nc1Cl)(Cn1cncn1)C1(Cl)CC1 (centres unmarked) [Example I-53] | 100
3 | OC(Cc1ccnc(Cl)c1F)(Cn1cncn1)C1(Cl)CC1 (centres unmarked) [Example I-60] | 100

tested on: Venturia inaequalis; assay: Example O: Venturia test (apples)/preventive; assay type: in vivo; settings: 100 ppm of active ingredient, preventive, evaluated 10 days after inoculation
Procedure: Solvent: 24.5 parts by weight of acetone • 24.5 parts by weight of dimethylacetamide Emulsifier: 1 part by weight of alkylaryl polyglycol ether To produce a suitable preparation of active compound, 1 part by weight of active compound is mixed with the stated amounts of solvent and emulsifier, and the concentrate is diluted with water to the desired concentration. To test for preventive activity, young plants are sprayed with the preparation of active compound at the stated rate of application.

Row | SMILES | Eff. % [%]
4 | OC(Cc1cccnc1F)(Cn1cncn1)C1(Cl)CC1 (centres unmarked) [Example I-51] | 94
5 | OC(Cc1ccc(Cl)nc1Cl)(Cn1cncn1)C1(Cl)CC1 (centres unmarked) [Example I-53] | 97
6 | OC(Cc1ccnc(Cl)c1F)(Cn1cncn1)C1(Cl)CC1 (centres unmarked) [Example I-60] | 100

tested on: Septoria tritici; assay: Example D: in vivo preventive test on Septoria tritici (leaf spot on wheat); settings: 500 ppm of active ingredient; wheat plants, preventive spray; evaluated 24 days after inoculation
Procedure: as §1, with “wheat” for “gherkin”, “Septoria tritici” for “Sphaerotheca fuliginea”

Row | SMILES | Eff. % [%]
7 | OC(Cc1cccnc1F)(Cn1cncn1)C1(Cl)CC1 (centres unmarked) [Example I-51] | 100
8 | OC(Cc1ccc(Cl)nc1Cl)(Cn1cncn1)C1(Cl)CC1 (centres unmarked) [Example I-53] | 100
9 | OC(Cc1ccnc(Cl)c1F)(Cn1cncn1)C1(Cl)CC1 (centres unmarked) [Example I-60] | 97

tested on: Fusarium nivale (var. majus); assay: Example J: Fusarium nivale (var. majus)-test (wheat)/preventive; assay type: in vivo; settings: 500 ppm of active ingredient, preventive, evaluated 5 days after inoculation
How it was run: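 Young wheat plants sprayed preventively with active compound (DMA/emulsifier concentrate diluted in water) at the stated rate, then sandblast-wounded and inoculated with conidia. Held in greenhouse at ~10 °C, ~100% RH. Efficacy scored 5 days post-inoculation: 0% = untreated control, 100% = no disease.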

Row | SMILES | Eff. % [%]
10 | OC(Cc1cccnc1F)(Cn1cncn1)C1(Cl)CC1 (centres unmarked) [Example I-51] | 100
11 | OC(Cc1ccc(Cl)nc1Cl)(Cn1cncn1)C1(Cl)CC1 (centres unmarked) [Example I-53] | 100
12 | OC(Cc1ccnc(Cl)c1F)(Cn1cncn1)C1(Cl)CC1 (centres unmarked) [Example I-60] | 100

tested on: Fusarium culmorum; assay: Example H: Fusarium culmorum-test (wheat)/curative; assay type: in vivo; settings: 500 ppm of active ingredient, curative, evaluated 5 days after inoculation
Procedure: Solvent: 49 parts by weight of N,N-dimethylacetamide
Emulsifier: 1 part by weight of alkylaryl polyglycol ether
To produce a suitable preparation of active compound, 1 part by weight of active compound or active compound combination is mixed with the stated amounts of solvent and emulsifier, and the concentrate is diluted with water to the desired concentration.
To test for curative activity, young plants are slightly injured by using a sandblast and afterwards they are sprayed with a conidia suspension of Fusarium culmorum and placed for 24 hours in a greenhouse under a translucent incubation cabinet at a temperature of approximately 22° C. and a relative atmospheric humidity of approximately 100% and are subsequently sprayed with the preparation of active compound at the stated rate of application.
After the spray coating has been dried, the plants remain in the greenhouse under translucent incubation cloches at a temperature of approximately 22° C. and a relative atmospheric humidity of approximately 100%.
The test is evaluated 5 days after the inoculation. 0% means an efficacy which corresponds to that of the untreated control, while an efficacy of 100% means that no disease is observed.

Row | SMILES | Eff. % [%]
13 | OC(Cc1cccnc1F)(Cn1cncn1)C1(Cl)CC1 (centres unmarked) [Example I-51] | 100
14 | OC(Cc1ccc(Cl)nc1Cl)(Cn1cncn1)C1(Cl)CC1 (centres unmarked) [Example I-53] | 90
15 | OC(Cc1ccnc(Cl)c1F)(Cn1cncn1)C1(Cl)CC1 (centres unmarked) [Example I-60] | 83

tested on: Pyricularia oryzae; assay: not given; assay type: in vivo; settings: 500 ppm of active ingredient; rice, preventive; evaluated 8 days after inoculation

Row | SMILES | Eff. % [%]
16 | OC(Cc1cccnc1F)(Cn1cncn1)C1(Cl)CC1 (centres unmarked) [Example I-51] | 80
17 | OC(Cc1ccc(Cl)nc1Cl)(Cn1cncn1)C1(Cl)CC1 (centres unmarked) [Example I-53] | 80

tested on: Botrytis cinerea; assay: Example A: in vivo preventive test on Botrytis cinerea (grey mould); settings: 500 ppm of active ingredient; gherkin plants, preventive spray; evaluated 4 to 5 days after inoculation
Procedure: as §1, with “Botrytis cinerea” for “Sphaerotheca fuliginea”

Row | SMILES | Eff. % [%]
18 | OC(Cc1cccnc1F)(Cn1cncn1)C1(Cl)CC1 (centres unmarked) [Example I-51] | 100
19 | OC(Cc1ccc(Cl)nc1Cl)(Cn1cncn1)C1(Cl)CC1 (centres unmarked) [Example I-53] | 100
20 | OC(Cc1ccnc(Cl)c1F)(Cn1cncn1)C1(Cl)CC1 (centres unmarked) [Example I-60] | 100

tested on: Uromyces appendiculatus; assay: Example F: in vivo preventive test on Uromyces appendiculatus (bean rust); settings: 500 ppm of active ingredient; bean plants, preventive spray; evaluated 11 days after inoculation
Procedure: as §1, with “bean” for “gherkin”, “Uromyces appendiculatus” for “Sphaerotheca fuliginea”

Row | SMILES | Eff. % [%]
21 | OC(Cc1cccnc1F)(Cn1cncn1)C1(Cl)CC1 (centres unmarked) [Example I-51] | 86
22 | OC(Cc1ccc(Cl)nc1Cl)(Cn1cncn1)C1(Cl)CC1 (centres unmarked) [Example I-53] | 98
23 | OC(Cc1ccnc(Cl)c1F)(Cn1cncn1)C1(Cl)CC1 (centres unmarked) [Example I-60] | 100

tested on: not given; assay: not given; settings: pH 2.7

Row | SMILES | LogP
24 | OC(Cc1cccnc1F)(Cn1cncn1)C1(Cl)CC1 (centres unmarked) [Example I-51] | 1.64^[a]
25 | OC(Cc1ccc(Cl)nc1Cl)(Cn1cncn1)C1(Cl)CC1 (centres unmarked) [Example I-53] | 2.55^[a]
26 | OC(Cc1ccnc(Cl)c1F)(Cn1cncn1)C1(Cl)CC1 (centres unmarked) [Example I-60] | 2.02^[a]

tested on: Puccinia recondita; assay: Example B: in vivo preventive test on Puccinia recondita (brown rust on wheat); settings: 500 ppm of active ingredient; wheat plants, preventive spray; evaluated 11 days after inoculation
Procedure: as §1, with “wheat” for “gherkin”, “Puccinia recondita” for “Sphaerotheca fuliginea”

Row | SMILES | Eff. % [%]
27 | OC(Cc1cccnc1F)(Cn1cncn1)C1(Cl)CC1 (centres unmarked) [Example I-51] | 98
28 | OC(Cc1ccc(Cl)nc1Cl)(Cn1cncn1)C1(Cl)CC1 (centres unmarked) [Example I-53] | 94
29 | OC(Cc1ccnc(Cl)c1F)(Cn1cncn1)C1(Cl)CC1 (centres unmarked) [Example I-60] | 98

tested on: Fusarium graminearum; assay: not given; assay type: in vivo; settings: 500 ppm of active ingredient; barley, preventive; evaluated 5 days after inoculation

Row | SMILES | Eff. % [%]
30 | OC(Cc1cccnc1F)(Cn1cncn1)C1(Cl)CC1 (centres unmarked) [Example I-51] | 100
31 | OC(Cc1ccc(Cl)nc1Cl)(Cn1cncn1)C1(Cl)CC1 (centres unmarked) [Example I-53] | 100
32 | OC(Cc1ccnc(Cl)c1F)(Cn1cncn1)C1(Cl)CC1 (centres unmarked) [Example I-60] | 100

tested on: Pyrenophora teres; assay: Example C: in vivo preventive test on Pyrenophora teres (net blotch on barley); settings: 500 ppm of active ingredient; barley plants, preventive spray; evaluated 14 days after inoculation
Procedure: as §1, with “barley” for “gherkin”, “Pyrenophora teres” for “Sphaerotheca fuliginea”

Row | SMILES | Eff. % [%]
33 | OC(Cc1cccnc1F)(Cn1cncn1)C1(Cl)CC1 (centres unmarked) [Example I-51] | 100
34 | OC(Cc1ccc(Cl)nc1Cl)(Cn1cncn1)C1(Cl)CC1 (centres unmarked) [Example I-53] | 86
35 | OC(Cc1ccnc(Cl)c1F)(Cn1cncn1)C1(Cl)CC1 (centres unmarked) [Example I-60] | 100

tested on: Phakopsora pachyrhizi; assay: Example L: Phakopsora test (soybeans)/preventive; assay type: in vivo; settings: 100 ppm of active ingredient, preventive, evaluated 7 days after inoculation

Row | SMILES | Eff. % [%]
36 | OC(Cc1cccnc1F)(Cn1cncn1)C1(Cl)CC1 (centres unmarked) [Example I-51] | 100
37 | OC(Cc1ccc(Cl)nc1Cl)(Cn1cncn1)C1(Cl)CC1 (centres unmarked) [Example I-53] | 93
38 | OC(Cc1ccnc(Cl)c1F)(Cn1cncn1)C1(Cl)CC1 (centres unmarked) [Example I-60] | 100

tested on: Leptosphaeria nodorum; assay: Example K: Leptosphaeria nodorum test (wheat)/preventive; assay type: in vivo; settings: 500 ppm of active ingredient, preventive, evaluated 8 days after inoculation
Procedure: Solvent: 49 parts by weight of N,N-dimethylacetamide Emulsifier: 1 part by weight of alkylaryl polyglycol ether To produce a suitable preparation of active compound, 1 part by weight of active compound or active compound combination is mixed with the stated amounts of solvent and emulsifier, and the concentrate is diluted with water to the desired concentration. To test for preventive activity, young plants are sprayed with the preparation of active compound or active compound combination at the stated rate of application. After the spray coating has been dried, the plants are sprayed with a spore suspension of Leptosphaeria nodorum.

Row | SMILES | Eff. % [%]
39 | OC(Cc1cccnc1F)(Cn1cncn1)C1(Cl)CC1 (centres unmarked) [Example I-51] | 100
40 | OC(Cc1ccc(Cl)nc1Cl)(Cn1cncn1)C1(Cl)CC1 (centres unmarked) [Example I-53] | 100
41 | OC(Cc1ccnc(Cl)c1F)(Cn1cncn1)C1(Cl)CC1 (centres unmarked) [Example I-60] | 100

tested on: Blumeria graminis f. sp. hordei; assay: Example G: Blumeria test (barley)/preventive; assay type: in vivo; settings: 500 ppm of active ingredient, preventive, evaluated 7 days after inoculation
How it was run: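 Active compound formulated in N,N-dimethylacetamide with alkylaryl polyglycol ether emulsifier, diluted in water, and sprayed onto young barley plants at the stated application rate. Once the coating dried, plants were dusted with Blumeria graminis f. sp. hordei spores as a preventive test.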

Row | SMILES | Eff. % [%]
42 | OC(Cc1cccnc1F)(Cn1cncn1)C1(Cl)CC1 (centres unmarked) [Example I-51] | 100
43 | OC(Cc1ccc(Cl)nc1Cl)(Cn1cncn1)C1(Cl)CC1 (centres unmarked) [Example I-53] | 100
44 | OC(Cc1ccnc(Cl)c1F)(Cn1cncn1)C1(Cl)CC1 (centres unmarked) [Example I-60] | 100
